In publication PMC5915149, “The role of oxidative stress in activity of anticancer thiosemicarbazones” (Oncotarget, 2018):
Read-outs that look alike come from different tables or passages of the source. Each block holds one molecule with its values, some of them ahead of it.

What was measured:
calf-thymus DNA (CT-DNA) [1] = assay: Intercalation, absorption spectra with CT-DNA; type: binding; conditions: for % hypochromism / Changes in absorbance / Δε: bound to CT-DNA; for blue/red shift: wavelengths of maximum absorption, compound alone vs DNA-bound
Description: For the DNA binding studies, Calf-thymus DNA (CT-DNA) was purchased from Sigma Aldrich. The lyophilized CT-DNA was dissolved in 10 mM Tris-HCl, pH 7.9, mixed gently and left overnight at 4° C. The purity of the CT-DNA solution was determined by measuring the ratio of UV absorbance at 260 and 280 nm. […] Then, the concentration of CT-DNA was determined from the absorbance at 260 nm using an extinction coefficient of 6600 M^–1cm^–1. The tested TSC and DOX were dissolved in DMSO to a concentration of 8.35 mM, which was then used as the stock solution for preparing the various concentrations (25, 12.5, 6 and 3 µM) in 1 mL in 10 mM of Tris-HCl (pH 7.9). Afterwards, 18 µM CT-DNA was added to the prepared solutions, which were incubated for 1.5 h at 37° C with occasional vortexing. The absorption spectra were measured using a Hitachi U-2900 spectrophotometer in range of 200–500 nm. All absorption spectra were imported and compared in OriginPro 8.0.

NHDF [2] = assay: MTS cytotoxicity assay, normal fibroblasts; type: cell-based, human; conditions: 96 h incubation
Description: (§1) The cells were seeded in 96-well plates (Nunc) at a density of 3,500 cells/well (HCT116 and MCF-7) and 3,000 cells/well (NHDF) and incubated at 37° C for 24 h. The assay was performed following a 96 h incubation with varying concentrations of the compounds that were being tested. Then, 20 µL of CellTiter 96® AQueous One Solution-MTS (Promega) was added to each well (with 100 µL DMEM without phenol red) and incubated for 1 h at 37° C. The optical densities of the samples were analyzed at 490 nm using a multi-plate reader (Synergy 4, Bio Tek). Results were expressed as a percentage of the control and calculated as the inhibitory concentration (IC50) values (using GraphPad Prism 5). The IC50 parameter was defined as the compound concentration that was necessary to reduce the proliferation of cells to 50% of the untreated control. Each individual compound was tested in triplicate in a single experiment with each experiment being repeated three or four times.

MCF-7 = assay: MTS antiproliferative assay, MCF-7 (with or without added metal ions); type: cell-based, human
Description: as §1
(§2) The HCT116 and MCF-7 cells were seeded in 96-well plates (Nunc) at a density of 3,500 cells/well and incubated at 37° C for 24 h. The MTS assay was performed following a 96 h incubation with varying concentrations of the tested compounds. Additionally, a 20 µM solution of CuSO4, FeSO4 or FeCl3 was added into wells with the tested compounds. The results were expressed as a percentage of the control and calculated as the inhibitory concentration (IC50) values using GraphPad Prism 5. Each individual compound was tested in triplicate in a single experiment with each experiment being repeated three times.

CAT = assay: mRNA expression (Real-Time PCR) of CAT; type: cell-based, human; conditions: HCT116, TSC 1 µM, after the first 12 h
Description: (§3) The HCT116 cells were seeded in 3 cm Petri dishes (Nunc) at a density of 0.5·10^6 cells/well and incubated overnight. Next, the medium was removed and solutions of TSC (1 μM) and DOX (5 μM) were added. After 12 or 24 h, total RNA was isolated from the cells using TRIzol Reagent (Ambion) according to the manufacturer’s instructions. cDNA synthesis was performed with 5 μg of total RNA using a GoScript™ Reverse Transcriptase kit (Promega) and Oligo(dT)23 Primers (Sigma). The Real-Time PCR was performed with a CTX96 Touch™ Real-Time PCR Detection System (Biorad) in a 20 μL reaction volume. The reaction consisted of PowerUp™ SYBR® Green Master Mix (Applied Biosystems), a primer pair mix (0.5 μM each) and 1 μL of cDNA. All primer pair sequences were purchased from Sigma-Aldrich and are listed in Supplementary Table 2. The experiment was performed under the following conditions: initial denaturation at 95° C for 120 sec; followed by 40 denaturation cycles at 95° C, 15 sec; annealing (primer-specific temperature for 30 sec) and extension at 72° C for 60 sec. Data was analyzed based on a comparison of the expression of the target genes to a reference gene – β-actin, using the 2^–ΔΔCT method. The experiments were performed at least three times.

p21 = assay: Western blot of p21; type: cell-based, human; conditions: HCT116, 1 µM
Description: (§4) The HCT116 cells were seeded in 3 cm Petri dishes (Nunc) at a density of 0.5·10^6 cells/well and incubated overnight. The next day, solutions of TSC (1 μM) and DOX (5 μM) were added and the cells incubated for 24 or 48 h. Cells were harvested by trypsinization and washed with cold PBS. Next, the cells were centrifuged and suspended in an RIPA buffer (Thermo Scientific) containing Halt Protease Inhibitor Cocktail (Thermo Scientific), Halt Phosphatase Inhibitor Cocktail (Thermo Scientific) along with 0.5 M EDTA and lysed for 20 min on ice. Then, the lysates were sonicated, centrifuged at 10,000 rpm for 10 min at 4° C and the supernatants were collected for further analysis. The protein concentration was determined using a Micro BCA™ Protein Assay Kit (Thermo Scientific) according to the manufacturer’s instructions. Equal amounts of the proteins (20 μg) were electrophoresed on SDS-Page gels and transferred onto a nitrocellulose membranes. The membranes were blocked in 5% non-fat milk prepared in PBS containing 0.1% Tween-20 (TPBS) for 1 h. After blocking, the membranes were incubated with specific primary antibodies: cdc2 (#POH1, Cell Signaling), p21^Waf1/Cip1 (#12D1, Cell Signaling), p53 (#1C12, Cell Signaling) and β-Actin (#8H10D10, Cell Signaling) overnight at 4° C, then washed and incubated with horseradish peroxidase (HRP)-conjugated secondary antibodies for 1h at room temperature. All of antibodies were diluted 1:1000 in 5% milk in TPBS. Finally, the membranes were washed and incubated with a SuperSignal™ West Pico Chemiluminescent Substrate (Thermo Scientific). The chemiluminescence signals were captured using a ChemiDoc™ XRS+ System (BioRad). The experiments were performed at least three times. Densitometric analysis was performed using ImageJ 1.41 software (Wayne Rasband, National Institutes of Health, USA).

HCT116 [3] = assay: MTS antiproliferative assay, HCT116 (with or without added metal ions); type: cell-based, human
Description: as §1, §2

calf-thymus DNA (CT-DNA) [4] = tested on: calf-thymus DNA (CT-DNA); parameters: method as in PMID 26599982; conditions: cited from earlier work
HCT116 cells = assay: Time dependent measurement of ROS level; type: cell-based, human; conditions: 1 µM; 3, 6, 9, 12, 24 h
Description: To determine the intracellular levels of ROS, HCT116 cells were seeded onto black 96-well plates (Corning) at a density of 9,000 cells/well and incubated at 37° C. After an overnight incubation, the solutions of the tested compounds: 1a-c, 2 a-b, 3 a-c, Dp44mT (1 μM) and DOX (5 μM) were added and incubated for 3, 6, 9, 12, and 24 h in a kinetic experiment. The generation of ROS was measured using a CellROX® Green Reagent (Molecular Probes™). Additionally, the quantity of cells in each well was determined using Hoechst 33342 (Molecular Probes™). The solutions of the tested compounds were removed and 100 µL of CellROX Green Reagent and Hoechst 33342 at a final concentration of 5 μM were added to each well. Then, the cells were incubated for 30 min at 37° C. The fluorescence was measured using a multi-plate reader (Synergy 4, Bio Tek) at 485 nm excitation and a 520 nm emission for CellROX Green Reagent and a 345 nm excitation laser and a 485 nm emission filter for Hoechst 33342. The experiments were performed three to four times. ROS levels were expressed as the percentage of the control cells level.

Ndrg1 = assay: mRNA expression (Real-Time PCR) of Ndrg1; type: cell-based, human; conditions: HCT116, TSC 1 µM, 24 h
Description: as §3

HCT116 [5] = tested on: HCT116; parameters: method as in PMID 25329549; conditions: 96 h incubation, MTS; cited from earlier work
cdc2 = assay: Western blot of cdc2; type: cell-based, human; conditions: HCT116, 1 µM
Description: as §4

MnSOD = assay: mRNA expression (Real-Time PCR) of MnSOD; type: cell-based, human; conditions: HCT116, TSC 1 µM, 12 or 24 h
Description: as §3

NHDF [6] = tested on: NHDF; parameters: method as in PMID 25329549; conditions: 96 h incubation, MTS; cited from earlier work
[7] = 96 h, 20 µM CuSO4 added, read-out: Activity - IC50 MCF-7+ Cu^2+
[8] = 96 h, 20 µM FeCl3 added, read-out: Activity - IC50 MCF-7+ Fe^3+
[9] = 96 h incubation, MTS, read-out: Activity - IC50 MCF-7
[10] = 96 h, 20 µM CuSO4 added, read-out: Activity - IC50 HCT116+ Cu^2+
[11] = 96 h, 20 µM FeCl3 added, read-out: Activity - IC50 HCT116+ Fe^3+

- IC50 (MCF-7; [7]): 4.48 ± 1.18 nM
- IC50 (MCF-7; [8]): 39.1 ± 6.51 nM
- IC50 (MCF-7; [9]): 17.2 ± 2.71 nM
- IC50 (HCT116 [3]; [10]): 7.19 ± 1.84 nM
- IC50 (HCT116 [3]; [11]): 70.8 ± 7.28 nM
- IC50 (HCT116 [3]; 96 h incubation, MTS, read-out: Activity - IC50 HCT116): 72.1 ± 9.4 nM
SMILES: FC(F)(F)c1cnc(N2CCN(C(=S)NN=Cc3ccc4ccccc4n3)CC2)c(Cl)c1 [Compound 1c]
- % hypochromism (calf-thymus DNA (CT-DNA) [1]): 22.6%
- Changes in absorbance (calf-thymus DNA (CT-DNA) [1]): hypochromism
- Δε (calf-thymus DNA (CT-DNA) [1]): 2695.6 M⁻¹ cm⁻¹
- blue/red shift (calf-thymus DNA (CT-DNA) [1]): 4 nm
- IC50 (NHDF [2]): 17100 nM
- mRNA expression of CAT (CAT): higher
- expression of p21 protein (densitometric analysis) (p21): marked up-regulation
- improvement in cytotoxicity after interacting with Cu^2+ (HCT116 [3]; HCT116 cells, 20 µM CuSO4): more than a ten-fold increase

- IC50 (MCF-7; Homo sapiens, MCF7, 96 h, 20 µM CuSO4 added, read-out: Activity - IC50 MCF-7+ Cu^2+): 336 ± 65.3 nM
- IC50 (MCF-7; Homo sapiens, MCF7, 96 h, 20 µM FeCl3 added, read-out: Activity - IC50 MCF-7+ Fe^3+): 414 ± 59 nM
- IC50 (MCF-7; Homo sapiens, MCF7, 96 h incubation, MTS, read-out: Activity - IC50 MCF-7): 405 ± 38 nM
- IC50 (HCT116 [3]; Homo sapiens, HCT-116, 96 h, 20 µM CuSO4 added, read-out: Activity - IC50 HCT116+ Cu^2+): 62.5 ± 8.24 nM
- IC50 (HCT116 [3]; Homo sapiens, HCT-116, 96 h, 20 µM FeCl3 added, read-out: Activity - IC50 HCT116+ Fe^3+): 84.8 ± 11.2 nM
- IC50 (HCT116 [3]; Homo sapiens, HCT-116, 96 h incubation, MTS, read-out: Activity - IC50 HCT116): 91 ± 6.96 nM
SMILES: COc1cccc2c1C(=O)c1c(O)c3c(c(O)c1C2=O)C[C@@](O)(C(=O)CO)C[C@@H]3O[C@H]1C[C@H](N)[C@H](O)[C@H](C)O1 [DOX, doxorubicin, reference compound]
- IC50 (NHDF [2]; Homo sapiens, NHDF): 137 ± 26 nM
- Selectivity index, calculated for MCF-7 (MCF-7; versus NHDF): 0.3
- % hypochromism (calf-thymus DNA (CT-DNA) [4]; bound to CT-DNA): 34.2%
- Changes in absorbance (calf-thymus DNA (CT-DNA) [4]; bound to CT-DNA): hypochromism
- Δε (calf-thymus DNA (CT-DNA) [4]; bound to CT-DNA): 3235.6 M⁻¹ cm⁻¹
- % hypochromism (calf-thymus DNA (CT-DNA) [4]; bound to CT-DNA, listed as doxorubicin): about 34.2%
- blue/red shift (calf-thymus DNA (CT-DNA) [4]; wavelengths of maximum absorption, compound alone vs DNA-bound): 10 nm
- Selectivity index, calculated for HCT116 (HCT116 [3]; versus NHDF): 1.5

- IC50 (MCF-7; [7]): 4.41 ± 1.5 nM
- IC50 (MCF-7; [8]): 16.6 ± 2.25 nM
- IC50 (MCF-7; [9]): 25.6 ± 6.74 nM
- IC50 (HCT116 [3]; [10]): 4.95 ± 1.64 nM
- IC50 (HCT116 [3]; [11]): 29.5 ± 3.69 nM
SMILES: S=C(NN=C(c1ccccn1)c1ccccn1)N1CCN(c2cnccn2)CC1 [Compound 3c]
- level of ROS, normalized to untreated cells (HCT116 cells): only a minute increase
- % hypochromism (calf-thymus DNA (CT-DNA) [1]): 28.5%
- Changes in absorbance (calf-thymus DNA (CT-DNA) [1]): hypochromism
- Δε (calf-thymus DNA (CT-DNA) [1]): 3220.0 M⁻¹ cm⁻¹
- blue/red shift (calf-thymus DNA (CT-DNA) [1]): 2 nm
- mRNA expression of Ndrg1 (Ndrg1): strongest
- IC50 (HCT116 [5]): 37.8 ± 3.05 nM
- expression of cdc2 protein (densitometric analysis) (cdc2): strongest decreasing effect
- expression of p21 protein (densitometric analysis) (p21): marked up-regulation
- mRNA expression of MnSOD (MnSOD): large drop
- IC50 (NHDF [6]): 13.85 ± 0.03 nM
